Tests used:
[1] = Inhibition of Leishmania donovani FPPS
[2] = Inhibition of Trypanosoma brucei FPPS
[3] = system: Trypanosoma brucei rhodesiense; test: Growth inhibition of Trypanosoma brucei rhodesiense

| IC50 [1] | EC50 [3] | SMILES | IC50 [2] |
| --- | --- | --- | --- |
| 5.4 µM | 1700 nM | O=P(O)(O)C(O)(CCc1cccnc1)P(=O)(O)O | 33000 nM |
|  |  | Cc1cccnc1NC(P(=O)(O)O)P(=O)(O)O | 230 nM |
|  |  | O=P(O)(O)C(O)(Cc1cccnc1)P(=O)(O)O [RISEDRONIC ACID] | 300 nM |

Reference: ChEMBL document CHEMBL3425452, “Farnesyl diphosphate synthase inhibitors with unique ligand-binding geometries” (ACS Med Chem Lett, 2015)
